{"source": "patent US10752626B2", "about": "“Iso-citrate dehydrogenase (IDH) inhibitor” (SHANGHAI METON PHARMACEUTICAL CO., LTD, priority 2016, dated 2020)", "key": {"[1]": {"assay": "Metabolic stability in mouse plasma", "format": "in vitro ADME", "experimental": "Blank male/female mouse plasma was provided by 3D BioOptima (Suzhou, China) and was freshly collected prior to use. The acetonitrile was purchased from Honeywell International Inc. (New Jersey, U.S.).\nAt each set time point (0, 15, 30, 60, 120 min), small aliquots from the plasma samples was transferred (each of 20 μL) into the mirocentrifuge tubes, then was added into 200 μL IS containing acetonitrile for protein precipitation. […] All incubations were performed in duplicate. In vitro compound stability was calculated by using the following equations: […]\nwhere Ct is the area ratio of the sample to the IS at […] post-incubation, and C0 is the area ratio of the sample to the IS at 0 h pre-incubation.\nIn this study, the metabolic stability of the compounds in mouse plasma was assessed according to the method disclosed in Test 3 of the Biological evaluation section."}, "IDH1 R132H": {"biological_target": "IDH1 R132H (Homo sapiens (Human), UniProt O75874, R132H)", "sequence (O75874 whole entry R132H)": "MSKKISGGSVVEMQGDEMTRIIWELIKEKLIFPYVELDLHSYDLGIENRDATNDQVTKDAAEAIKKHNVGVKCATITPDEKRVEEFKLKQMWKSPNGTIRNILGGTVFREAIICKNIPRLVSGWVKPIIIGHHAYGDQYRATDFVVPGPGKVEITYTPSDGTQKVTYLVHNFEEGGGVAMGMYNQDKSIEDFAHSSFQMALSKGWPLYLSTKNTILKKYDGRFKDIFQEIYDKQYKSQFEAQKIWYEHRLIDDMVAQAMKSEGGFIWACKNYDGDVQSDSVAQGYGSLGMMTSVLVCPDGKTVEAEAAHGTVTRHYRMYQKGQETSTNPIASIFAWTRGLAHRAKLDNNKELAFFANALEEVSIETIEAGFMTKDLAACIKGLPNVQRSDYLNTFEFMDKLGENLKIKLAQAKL", "assay": "Biochemical assay for inhibition of mutant IDH1 R132H", "settings": "tested in triplet", "text": "The present disclosure provides a biochemical assay method for detecting the IDH inhibition and selectivity of the compounds by detecting IDH enzyme activity directly.\nWild-type IDH enzyme could convert NADP^+ to NADPH when it catalyzes the α-KG producing reaction. Mutant IDH enzyme could convert NADPH to NADP^+ when it catalyzes the D-2-HG producing reaction. So the activity of wild-type and mutant IDH1/2 could be measured by monitoring NADPH level change: in the reaction catalyzed by wild-type IDH1/2, the newly generated NADPH is utilized instantly by coupled diaphorase-resazurin reaction to generate resorufin which is fluorescent (at Excitation 544 nm, Emission 590 nm) and thus NADPH is monitored indirectly; while in the reaction catalyzed by mutant IDH1/2, NADPH is directly monitored as it is fluorescent (at Excitation 340 nm, Emission 460 nm). By monitoring the change of NADPH level in the reaction, the enzyme activity could be determined rapidly and efficiently, IC50 of a compound could also be assayed.\nThe test compounds were prepared into 50 mM stock solutions in DMSO and stored at −20° C. Each test compound stock was further diluted to obtain a 100× stock solution at a concentration of 200 μM, 100 μM, 50 μM, 25 μM, 12.5 jμM, 6.25 μM and 3.125 μM, respectively, for the final use on the day of test.\nInhibition of Mutant IDHJ (R132H or R132C):\nSolution A was prepared by combining 1 M Tris-HCl pH7.5 (300 μL), 5 M NaCl (450 μL), 1 M MgCl2 (150 μL), 1 M DTT (15 μL), 20 mg/mL BSA (37.5 μL), 20 mM NADPH (20 μL), and 0.5 mM α-KG (40 μL), followed by adding deionized water to a final volume of 15 mL.\nReaction buffer was prepared by combining 1 M Tris-HCl pH 7.5 (200 μL), 5 M NaCl (300 μL), 1 M MgCl2 (100 μL), 1 M DTT (10 μL) and 20 mg/mL BSA (25 μL), followed by adding deionized water to a final volume of 10 mL.\nSolution B was prepared by combining the reaction buffer (5 mL) and […] IDH1-R132H (5.21 μL) or 107 μM IDH1-R132C (4.67 μL).\n148 μL Solution A was added into each sample well of a 96-well plate P1, and then 2 μL of the test compound solution at each concentration and 2 μL of DMSO (negative control/blank) were added into individual sample well respectively. 50 μL of Solution B was added into each of the sample wells having test compounds and one sample well having DMSO only, and 50 μL of reaction buffer was added into another sample well having DMSO only, respectively. P1 was put into BioTek Synergy H4 Microplate reader (BioTek Instruments Inc., Winooski, U.S.), and the program was set as follows: 37° C., shake plate 5 seconds, run kinetic mode, total detection time 20 min, detection intervals 40 seconds, detection mode fluorescence (at Excitation 340 nm, Emission 460 nm). The data were exported, the relative enzyme activity and the half-maximal inhibitory concentration (IC50) for the test compound were calculated. Relative enzyme activity was calculated as the absolute value of the slope of the Emission 460 reads of each well plotted against time (which represents the conversion rate of ca-KG to 2-HG through IDH1 modulated utilization of NADPH). The Dose-response curve was drawn and the IC50 was calculated via fitting. The IDH inhibition and selectivity of each test compound can be evaluated according to the effect of the compounds on the IDH enzyme activity.\nThe IDH inhibition activity of the compounds were assessed according to Test 5 of the Biological evaluation section. The test for mutant IDH1 R132H/R132C inhibition of each compound was carried out in triplet. For IDH1 R132H, the enzyme activity of exemplary Compounds 16, 21, 22, 23, 24 and 31 is plotted as a function of logarithm of the concentration of the compound in FIGS. 8A-8C, 9A-9C, 10A-10C, 11A-11C, 12A-12C and 13A-13C, respectively. […]"}}}
{"smiles": "CCN1Cc2c(ccnc2N[C@@H](C)c2ccc(Oc3ccc(C)cc3)cc2)C1=O", "note": "[Compound 16, (S)-2-ethyl-4-(1-(4-(p-tolyloxy)phenyl)ethylamino)-2,3-dihydro-1H-pyrrolo [3,4-c]pyridin-1-one]", "values": [{"measurement": "period over which compound remains stable in mouse plasma", "setting": "[1]", "result": "at least 2 hrs"}, {"measurement": "K", "setting": "[1]; #2", "result": 0.000737, "unit": "min⁻¹"}, {"measurement": "K", "setting": "[1]; Mean", "result": 0.000737, "unit": "min⁻¹"}, {"measurement": "half-life at 2 μM", "setting": "[1]; both sexes, #2", "result": 15.7, "unit": "h"}, {"measurement": "% remaining #1", "setting": "[1]; incubation 0 min", "result": 100, "unit": "%"}, {"measurement": "% remaining #2", "setting": "[1]; incubation 0 min", "result": 100, "unit": "%"}, {"measurement": "Ln (% remaining) #1", "setting": "[1]; incubation 0 min", "result": 4.61}, {"measurement": "Ln (% remaining) #2", "setting": "[1]; incubation 0 min", "result": 4.61}, {"measurement": "Mean Ln(% remaining)", "setting": "[1]; incubation 0 min", "result": 4.61}, {"measurement": "% remaining #1", "setting": "[1]; incubation 15 min", "result": 99.8, "unit": "%"}, {"measurement": "% remaining #2", "setting": "[1]; incubation 15 min", "result": 106, "unit": "%"}, {"measurement": "Ln (% remaining) #1", "setting": "[1]; incubation 15 min", "result": 4.60}, {"measurement": "Ln (% remaining) #2", "setting": "[1]; incubation 15 min", "result": 4.66}, {"measurement": "Mean Ln(% remaining)", "setting": "[1]; incubation 15 min", "result": 4.63}, {"measurement": "% remaining #1", "setting": "[1]; incubation 30 min", "result": 95.0, "unit": "%"}, {"measurement": "% remaining #2", "setting": "[1]; incubation 30 min", "result": 102, "unit": "%"}, {"measurement": "Ln (% remaining) #1", "setting": "[1]; incubation 30 min", "result": 4.55}, {"measurement": "Ln (% remaining) #2", "setting": "[1]; incubation 30 min", "result": 4.62}, {"measurement": "Mean Ln(% remaining)", "setting": "[1]; incubation 30 min", "result": 4.59}, {"measurement": "% remaining #1", "setting": "[1]; incubation 60 min", "result": 98.4, "unit": "%"}, {"measurement": "% remaining #2", "setting": "[1]; incubation 60 min", "result": 98.9, "unit": "%"}, {"measurement": "Ln (% remaining) #1", "setting": "[1]; incubation 60 min", "result": 4.59}, {"measurement": "Ln (% remaining) #2", "setting": "[1]; incubation 60 min", "result": 4.59}, {"measurement": "Mean Ln(% remaining)", "setting": "[1]; incubation 60 min", "result": 4.59}, {"measurement": "% remaining #1", "setting": "[1]; incubation 120 min", "result": 105, "unit": "%"}, {"measurement": "% remaining #2", "setting": "[1]; incubation 120 min", "result": 94.1, "unit": "%"}, {"measurement": "Ln (% remaining) #1", "setting": "[1]; incubation 120 min", "result": 4.65}, {"measurement": "Ln (% remaining) #2", "setting": "[1]; incubation 120 min", "result": 4.54}, {"measurement": "Mean Ln(% remaining)", "setting": "[1]; incubation 120 min", "result": 4.60}, {"measurement": "average percentage remaining", "setting": "[1]; within the 2 hrs period", "result": "above 98.5%"}, {"measurement": "IC50", "setting": "IDH1 R132H", "result": "< 1000", "unit": "nM"}]}
{"smiles": "CCN1Cc2c(ccnc2N[C@@H](C)c2ccc(Oc3ccccc3)c(F)c2)C1=O", "note": "[Compound 23, (S)-2-ethyl-4-((1-(3-fluoro-4-phenoxyphenyl)ethyl)amino)-2,3-dihydro-1H-pyrrolo[3,4-c]pyridin-1-one]", "values": [{"measurement": "IC50", "setting": "IDH1 R132H", "result": "< 1000", "unit": "nM"}]}
